According to publication PMC6271910, “Exploiting Natural Products to Build Metalla-Assemblies: The Anticancer Activity of Embelin-Derived Rh(III) and Ir(III) Metalla-Rectangles” (Molecules, 2014):
Read-outs that look alike come from different tables or passages of the source.

Key:
CT DNA (calf-thymus DNA) = test: Thermal denaturation study of CT DNA; format: binding; conditions: for ΔTm of CT DNA: incubation 12 h at 37 °C, PE buffer pH 7.4, complex/DNA ratio 1:1, CT DNA alone melts at 59.3 °C
Description: The DNA binding affinity of the synthesized complexes was evaluated through thermal denaturation studies with duplex CT DNA using a modified reported procedure. […]

[1] = system: HeLa cells (cervical cancer); test: MTT assay, HeLa; format: cell-based, human; conditions: 48 h, averaged over three experiments, read-out: Half maximum inhibitory concentration (IC50), HeLa
Description: (§1) To understand the effect of these complexes on the proliferation of cancerous and noncancerous cells, MTT assays were carried out following the protocol reported by Wilson et al.. The noncancerous (HEK-293) and the human cancerous cell lines (DU-145, A-549 and HeLa) were grown according to the supplier’s recommendations. All cell lines were treated for 48 h at different concentrations of complexes (0.25 µM, 0.5 µM, 0.75 µM, 1 µM, 5 µM, 10 µM, 25 µM, 50 µM and 100 µM). After treatment, the number of viable cells was estimated using a MTT assay. […] Cells treated with doxorubicin in the same concentration range were considered as controls.
(§2) The anticancer activity of the complex was determined using the 3-(4,5-dimethylthiazol-2-yl)-2,5-diphenyltetrazolium bromide (MTT) assay. First 1 × 10^4 cells per well were seeded in Dulbecco’s modified Eagle’s medium (DMEM, 100 µL) supplemented with 10% fetal bovine serum in each well of 96-well microculture plates and incubated for 24 h at 37 °C in a CO2 incubator. Complexes were diluted to the desired concentrations in culture medium and added to the wells with respective vehicle control. After 48 h of incubation, MTT (10 µL, 5 mg mL^−1) was added to each well and the plates were further incubated for 4 h. Then the supernatant from each well was carefully removed, formazan crystals were dissolved in DMSO (100 µL) and absorbance at 570 nm was recorded.

[2] = system: A-549 cells (lung cancer); test: MTT assay, A-549; format: cell-based, human
Description: as §1, §2

[3] = system: DU-145 cells (prostate cancer); test: MTT assay, DU-145; format: cell-based, human; conditions: averaged over three experiments, read-out: Half maximum inhibitory concentration (IC50), DU-145
Description: as §1, §2

[4] = system: HEK-293 (normal human embryonic kidney cells); test: MTT assay, HEK-293; format: cell-based; conditions: for IC50: 48 h, MTT, noncancerous cells, averaged over three experiments, read-out: Half maximum inhibitory concentration (IC50), HEK-293; for Selectivity for cancerous over noncancerous cells (HEK-293): IC50 on HEK-293 compared with cancer cell lines
Description: as §1, §2

A-549 cells [5] = test: Cell cycle assay by flow cytometry (propidium iodide); format: cell-based, human; conditions: A-549, 500 nM, 24 h; for Sub G1 (%): control 1.37; for G2/M (%): control 16.37; for S (%): control 17.15; for G0/G1 (%): control 54.62
Description: In order to corroborate the results obtained in the MTT assays and to better understand the action of metalla-rectangles 3 and 8 on cells, the effects on the cell cycle inhibition and the interference in cell proliferations using a standard cell cycle assay were studied. The results obtained are presented in (Table 2). On analyzing the results, it was evident that the cell cycle was inhibited at the subG1 phase with both metalla-rectangles.
Flow cytometric analysis (FACS) was performed to evaluate the distribution of the cells in different cell cycle phases. A-549 cells were incubated with metalla-rectangles 3 and 8 at 500 nM concentration for 24 h. Untreated cells were considered as control sample. Untreated and treated cells were harvested, washed with PBS, fixed in ice cold 70% ethanol and stained with propidium iodide (Sigma Aldrich, St. Louis, MO, USA). Cell cycle was performed by using Becton Dickinson FACS Caliber (Franklin Lakes, NJ, USA).

A-549 cells [6] = test: Apoptosis assay (annexin-V/propidium iodide flow cytometry); format: cell-based, human; conditions: A-549, 500 nM, 48 h; for Early apoptotic (%): control 0.84; for Late apoptotic (%): control 6.18; for Necrotic (%): control 14.61; for Living cells (%): control 78.37; for Total apoptotic cells (%): early + late apoptotic, control 7.02
CT DNA [7] = test: UV-visible spectroscopic titrations with CT DNA; format: binding, calf; conditions: 25 µM complex, KBPES buffer pH 7.0, 25 °C
Excerpt: The mode of the DNA-complex interaction was further studied by UV-visible experiments. The results from these studies will indicate the mode of DNA-complex interaction. The UV-visible spectra of metalla-rectangles 4, 6 and 8, the iridium derivatives, show a prominent absorption band at 210 nm. […] The hyperchromicity of the Soret band of the metalla-rectangles was more evident at 210 nm. A continuous hyperchromicity of the Soret band upon addition of metalla-rectangles 4, 6 and 8 to a CT DNA solution is an indication of electrostatic binding or partial unwinding of the CT DNA [27].
UV-Visible spectroscopic titrations were performed using an ABI Lambda 40 UV/Vis spectrophotometer (Foster City, CA, USA) at 25 °C using 1 cm path length quartz cuvettes. Stock solutions of complex (25 µM) was prepared in DMSO and CT DNA (25 µM) were prepared in KBPES buffer (30 mM Potassium Phosphate with 100 mM KCl, pH 7.0). The quartz cells were thoroughly cleaned with distilled water and followed by nitric acid (~0.1 N) after each experiment. UV-visible absorption titrations were done by adding CT DNA stock solution (25 µM) in KBPES buffer (30 mM Potassium Phosphate with 100 mM KCl, pH 7.0) to the quartz cuvette containing approximately 25 µM complex solutions. Preparation of CT DNA and complex solutions was done on the same day as the experiment. Titrations were performed until the band remained at a fixed wavelength upon successive additions of CT DNA.

CT DNA [8] = test: CD spectroscopic study with CT DNA; format: binding, calf; conditions: CT DNA/complex 1:0.5 to 1:1, KBPES buffer pH 7.0, 25 °C
Description: Circular dichroism (CD) studies can provide information on the changes in the DNA conformation upon interactions with small molecules. These changes in the DNA topology are giving useful information on the nature of the DNA-complex interactions. […] These bands are characteristic to the profile of the B form of DNA [24].
Circular dichroism (CD) experiments were performed using a Jasco 815 CD spectropolarimeter (Jasco, Tokyo, Japan). CD spectra were recorded from 230 to 300 nm to find the conformational changes in the CT DNA after interaction with the complexes. For each CD experiment, CT DNA (15 × 10^‒6 M) was used initially. Further, for the characterization of complex‒DNA interaction, the CD spectra were recorded in 1:0.5 and 1:1 CT DNA/complex molar ratios. CD titrations were performed in KBPES buffer (30 mM Potassium Phosphate with 100 mM KCl, pH 7.0) at 25 °C. Each spectrum was recorded three times and the average of three scans was taken.

A-549 cells [9] = test: Mitochondrial outer membrane permeability assay (MitoTracker Red, confocal microscopy); format: cell-based, human; conditions: A-549, 500 nM
Description: The aggregation of mitochondria was reported to occur when cells enter into apoptosis, and accordingly led to the release of cytochrome c into the cytosol, which in turn triggered the cascade pathway to apoptosis. From Figure 6, it was clear that mitochondria were getting bundled with metalla-rectangle 3, indicating the onset of apoptosis in A-549 cells.
Compound [3](CF3SO3)4 (500 nM) with treated and untreated A-549 cells were incubated in a medium containing MitoTracker Red™ (50 nM) for 30 min at culture conditions recommended by the supplier. Cells were washed and fixed with 4% paraformaldehyde for 15 min, and permeabilized with Triton X-100 (0.1%) for each 10 min. The cover glasses after PBS wash were mounted on to the glass slides, sealed with nail polish and observed using laser scanning confocal microscopy (Leica TCS SP5, Heidelberg, Germany). The MitoTracker Red™ was excited using 543 nm laser source and the fluorescence emission signals were collected at 570 nm to 635 nm.

[10] = 48 h, averaged over three experiments, read-out: Half maximum inhibitory concentration (IC50), A-549
[11] = 48 h, read-out: IC50 in A-549 cells

| Compound | ΔTm of CT DNA (CT DNA (calf-thymus DNA)) [°C] | IC50 [4] [µM] | IC50 [1] [µM] | IC50 [2, 10] [µM] | Change of the absorption (Soret) band at 210 nm on addition of CT DNA (CT DNA [7]) | IC50 ([3]; 48 h) [µM] | other results |
| --- | --- | --- | --- | --- | --- | --- | --- |
| COc1cccc2c1C(=O)c1c(O)c3c(c(O)c1C2=O)C[C@@](O)(C(=O)CO)C[C@@H]3O[C@H]1C[C@H](N)[C@H](O)[C@H](C)O1 [doxorubicin, reference compound] | 9.5 | – | – | – | – | – | IC50 ([1]; Homo sapiens, HeLa): 0.91 ± 0.2 µM; IC50 ([2]; Homo sapiens, A549, 48 h, averaged over three experiments, read-out: Half maximum inhibitory concentration (IC50), A-549): 0.85 ± 0.1 µM; IC50 ([3]; Homo sapiens, DU-145, 48 h): 1.28 ± 0.2 µM |
| [(η^5-C5Me5)4Ir4(μ2-1,2-bis(4-pyridyl)ethylene-ĸN)2(μ4-C6HRO4-ĸO)2](CF3SO3)4 [[8](CF3SO3)4] | 12.7 | 70.8 ± 0.4 | 0.59 ± 0.2 | 0.67 ± 0.4 | continuous increase of its intensity | 0.72 ± 0.2 | Selectivity for cancerous over noncancerous cells (HEK-293) [4]: two orders of magnitude; Sub G1 (%) (A-549 cells [5]): 11.98%; G2/M (%) (A-549 cells [5]): 3.49%; S (%) (A-549 cells [5]): 7.95%; G0/G1 (%) (A-549 cells [5]): 66.54%; IC50 [2, 11]: ~0.67 µM; Early apoptotic (%) (A-549 cells [6]): 1.58%; Late apoptotic (%) (A-549 cells [6]): 13.04%; Necrotic (%) (A-549 cells [6]): 22.92%; Living cells (%) (A-549 cells [6]): 62.46%; Total apoptotic cells (%) (A-549 cells [6]): 14.62%; Change of the positive CD band of CT DNA (275 nm) (CT DNA [8]): higher hyperchromicity |
| [(η^5-C5Me5)4Ir4(μ2-4,4'-bipyridine-ĸN)2(μ4-C6HRO4-ĸO)2](CF3SO3)4 [[6](CF3SO3)4] | 7.9 | 40.3 ± 0.4 | 1.04 ± 0.3 | 0.84 ± 0.1 | continuous increase of its intensity | 2.53 ± 0.2 | – |
| [(η^5-C5Me5)4Ir4(μ2-pyrazine-ĸN)2(μ4-C6HRO4-ĸO)2](CF3SO3)4 [[4](CF3SO3)4] | 6.8 | 31.2 ± 0.5 | 4.16 ± 0.3 | 3.18 ± 0.2 | continuous increase of its intensity | 16 ± 0.4 | – |
| [(η^5-C5Me5)4Rh4(μ2-1,2-bis(4-pyridyl)ethylene-ĸN)2(μ4-C6HRO4-ĸO)2](CF3SO3)4 [[7](CF3SO3)4] | 8.2 | 62.1 ± 0.3 | 5.75 ± 0.2 | 2.01 ± 0.2 | same hyperchromicity | 4.98 ± 0.3 | – |
| [(η^5-C5Me5)4Rh4(μ2-4,4'-bipyridine-ĸN)2(μ4-C6HRO4-ĸO)2](CF3SO3)4 [[5](CF3SO3)4] | 7.3 | 41.3 ± 0.4 | 1.01 ± 0.3 | 0.67 ± 0.1 | same hyperchromicity | 4.67 ± 0.2 | – |
| [(η^5-C5Me5)4Rh4(μ2-pyrazine-ĸN)2(μ4-C6HRO4-ĸO)2](CF3SO3)4 [[3](CF3SO3)4] | 12.9 | 62 ± 0.5 | 0.52 ± 0.2 | 0.5 ± 0.1 | same hyperchromicity | 0.54 ± 0.2 | Selectivity for cancerous over noncancerous cells (HEK-293) [4]: two orders of magnitude; Melting temperature of CT DNA in the presence of the compound (CT DNA (calf-thymus DNA); CT DNA alone 59.3 °C): 72.2 °C; Sub G1 (%) (A-549 cells [5]): 31.97%; G2/M (%) (A-549 cells [5]): 1.35%; S (%) (A-549 cells [5]): 2.87%; G0/G1 (%) (A-549 cells [5]): 56.29%; IC50 ([1]; listed as [3]^4+): 0.5 µM; IC50 [2, 11]: ~0.5 µM; Early apoptotic (%) (A-549 cells [6]): 4.73%; Late apoptotic (%) (A-549 cells [6]): 23.30%; Necrotic (%) (A-549 cells [6]): 11.57%; Living cells (%) (A-549 cells [6]): 60.40%; Total apoptotic cells (%) (A-549 cells [6]): 28.03%; Total apoptotic cells (%) (A-549 cells [6]; listed as 3): about 28.03%; Effect on mitochondria distribution (MitoTracker Red) (A-549 cells [9]): aggregations of mitochondria were observed; IC50 ([3]; 48 h, listed as [3]^4+): 0.5 µM; Change of the positive CD band of CT DNA (275 nm) (CT DNA [8]): slight hyperchromicity |
